Tested on: MV-4-11 cells
Assay: Gene expression microarray analysis (Affymetrix PrimeView) and GSEA
Type: cell-based, human
Parameters: RFU PODN (11730768_x_at) / Fold change /veh PODN (11730768_x_at) / RFU LINC00158 (11744669_a_at) / Fold change /veh LINC00158 (11744669_a_at) / RFU DUSP10 (11751237_a_at) / Fold change /veh DUSP10 (11751237_a_at) / RFU ID3 (11757404_x_at) / Fold change /veh ID3 (11757404_x_at) / RFU PLEKHG5 (11737974_s_at) / Fold change /veh PLEKHG5 (11737974_s_at) / RFU LRRC4B (11730491_at) / Fold change /veh LRRC4B (11730491_at) / RFU GIMAP4 (11747438_a_at) / Fold change /veh GIMAP4 (11747438_a_at) / RFU KRT8 (11758183_x_at) / Fold change /veh KRT8 (11758183_x_at) / RFU CNN1 (11734310_a_at) / Fold change /veh CNN1 (11734310_a_at) / RFU VPS37D (11726825_at) / Fold change /veh VPS37D (11726825_at) / RFU C10orf10 (11716522_x_at) / Fold change /veh C10orf10 (11716522_x_at) / RFU KIR2DL2 /// KIR2DL4 /// KIR2DL5A /// KIR2DL5B /// KIR2DS1 /// KIR2DS2 /// KIR2DS3 /// KIR2DS4 /// KIR3DL3 /// KIR3DL3 /// KIR3DS1 (11738374_at) / Fold change /veh KIR2DL2 /// KIR2DL4 /// KIR2DL5A /// KIR2DL5B /// KIR2DS1 /// KIR2DS2 /// KIR2DS3 /// KIR2DS4 /// KIR3DL3 /// KIR3DL3 /// KIR3DS1 (11738374_at) / RFU C1QL1 (11718748_at) / Fold change /veh C1QL1 (11718748_at) / RFU TMPRSS4 (11747572_a_at) / Fold change /veh TMPRSS4 (11747572_a_at) / RFU HAMP (11756126_x_at) / Fold change /veh HAMP (11756126_x_at) / RFU RNFT2 (11725882_a_at) / Fold change /veh RNFT2 (11725882_a_at) / RFU NR4A2 (11747474_a_at) / Fold change /veh NR4A2 (11747474_a_at) / RFU ABCC12 (11746883_a_at) / Fold change /veh ABCC12 (11746883_a_at) / RFU TMEM136 (11760407_x_at) / Fold change /veh TMEM136 (11760407_x_at) / RFU CLDN22 /// WWC2 (11732394_at) / Fold change /veh CLDN22 /// WWC2 (11732394_at) / RFU HLA-DPB1 (11760878_x_at) / Fold change /veh HLA-DPB1 (11760878_x_at) / RFU SPINT1 (11716480_a_at) / Fold change /veh SPINT1 (11716480_a_at) / RFU GAP43 (11754022_s_at) / Fold change /veh GAP43 (11754022_s_at) / RFU A4GNT (11735810_at) / Fold change /veh A4GNT (11735810_at) / RFU PRB3 (11715151_x_at) / Fold change /veh PRB3 (11715151_x_at) / RFU TUBB4B (11761932_at) / Fold change /veh TUBB4B (11761932_at) / RFU CAPN14 (11732068_a_at) / Fold change /veh CAPN14 (11732068_a_at) / RFU TMCC2 (11721928_a_at) / Fold change /veh TMCC2 (11721928_a_at) / RFU IRGQ (11745062_a_at) / Fold change /veh IRGQ (11745062_a_at) / RFU FAM174B (11720279_a_at) / Fold change /veh FAM174B (11720279_a_at) / RFU TMPRSS4 (11748680_a_at) / Fold change /veh TMPRSS4 (11748680_a_at) / RFU FAM212B (11763350_a_at) / Fold change /veh FAM212B (11763350_a_at) / RFU PLEKHG5 (11743358_a_at) / Fold change /veh PLEKHG5 (11743358_a_at) / RFU ZSCAN30 (11745921_a_at) / Fold change /veh ZSCAN30 (11745921_a_at) / RFU CMKLR1 (11741424_a_at) / Fold change /veh CMKLR1 (11741424_a_at) / RFU LOC101060620 /// MAPK8IP1 (11723275_at) / Fold change /veh LOC101060620 /// MAPK8IP1 (11723275_at) / RFU SPTSSB (11747773_x_at) / Fold change /veh SPTSSB (11747773_x_at) / RFU PRSS12 (11739890_at) / Fold change /veh PRSS12 (11739890_at) / RFU BIN1 (11741810_x_at) / Fold change /veh BIN1 (11741810_x_at) / RFU WNT11 (11732464_a_at) / Fold change /veh WNT11 (11732464_a_at) / RFU C10orf10 (11716521_a_at) / Fold change /veh C10orf10 (11716521_a_at) / RFU C5orf56 (11738089_at) / Fold change /veh C5orf56 (11738089_at) / RFU CYB561 (11721691_x_at) / Fold change /veh CYB561 (11721691_x_at) / RFU ANKRD19P (11752326_a_at) / Fold change /veh ANKRD19P (11752326_a_at) / RFU OR2T12 /// OR2T33 /// OR2T8 (11738714_s_at) / Fold change /veh OR2T12 /// OR2T33 /// OR2T8 (11738714_s_at) / RFU VCAN (11748164_a_at) / Fold change /veh VCAN (11748164_a_at) / RFU JSRP1 (11732532_at) / Fold change /veh JSRP1 (11732532_at) / RFU KRTAP10-11 (11738290_x_at) / Fold change /veh KRTAP10-11 (11738290_x_at) / RFU MYO3A (11730013_a_at) / Fold change /veh MYO3A (11730013_a_at) / RFU EBF3 (11725865_a_at) / Fold change /veh EBF3 (11725865_a_at) / RFU CAMK2N1 (11719241_x_at) / Fold change /veh CAMK2N1 (11719241_x_at) / RFU C5orf56 (11738088_a_at) / Fold change /veh C5orf56 (11738088_a_at) / RFU OLFML3 (11715873_a_at) / Fold change /veh OLFML3 (11715873_a_at) / RFU LOC100653217 /// NTM (11731650_a_at) / Fold change /veh LOC100653217 /// NTM (11731650_a_at) / RFU MAPK11 (11762145_a_at) / Fold change /veh MAPK11 (11762145_a_at) / RFU FIZ1 (11724087_x_at) / Fold change /veh FIZ1 (11724087_x_at) / RFU OASL (11726364_x_at) / Fold change /veh OASL (11726364_x_at) / RFU SOX15 (11748057_x_at) / Fold change /veh SOX15 (11748057_x_at) / RFU CD79A (11719716_a_at) / Fold change /veh CD79A (11719716_a_at) / RFU HIST1H1D (11736915_at) / Fold change /veh HIST1H1D (11736915_at) / RFU CASKIN2 (11723855_a_at) / Fold change /veh CASKIN2 (11723855_a_at) / RFU LOC730098 (11760151_x_at) / Fold change /veh LOC730098 (11760151_x_at) / RFU OR4N2 (11742367_at) / Fold change /veh OR4N2 (11742367_at) / RFU PRRT2 (11749266_a_at) / Fold change /veh PRRT2 (11749266_a_at) / RFU SNX32 (11753110_a_at) / Fold change /veh SNX32 (11753110_a_at) / RFU CDHR5 (11726645_a_at) / Fold change /veh CDHR5 (11726645_a_at) / RFU RCAN1 (11760418_a_at) / Fold change /veh RCAN1 (11760418_a_at) / RFU FAM167A (11723789_a_at) / Fold change /veh FAM167A (11723789_a_at) / RFU FAM26E (11764081_at) / Fold change /veh FAM26E (11764081_at) / RFU ISYNA1 (11749810_s_at) / Fold change /veh ISYNA1 (11749810_s_at) / RFU ACY1 (11761880_at) / Fold change /veh ACY1 (11761880_at) / RFU 11764098_at / Fold change /veh 11764098_at / RFU SAMD14 (11745864_x_at) / Fold change /veh SAMD14 (11745864_x_at) / RFU NPB (11741838_a_at) / Fold change /veh NPB (11741838_a_at) / RFU TMPRSS6 (11731388_a_at) / Fold change /veh TMPRSS6 (11731388_a_at) / RFU KRTAP10-2 (11738614_at) / Fold change /veh KRTAP10-2 (11738614_at) / RFU ARHGAP8 /// PRR5-ARHGAP8 (11727945_x_at) / Fold change /veh ARHGAP8 /// PRR5-ARHGAP8 (11727945_x_at) / RFU KRTAP5-7 /// NADSYN1 (11734609_at) / Fold change /veh KRTAP5-7 /// NADSYN1 (11734609_at) / RFU RASL12 (11751679_a_at) / Fold change /veh RASL12 (11751679_a_at) / RFU CDKN2B (11736163_a_at) / Fold change /veh CDKN2B (11736163_a_at) / RFU PRF1 (11729649_at) / Fold change /veh PRF1 (11729649_at) / RFU, ZNF638 /// ZNF638-IT1 / Fold change vs veh, ZNF638 /// ZNF638-IT1 / RFU, PANK3 / Fold change vs veh, PANK3 / RFU, SH3YL1 / Fold change vs veh, SH3YL1 / RFU, ZEB2 / Fold change vs veh, ZEB2 / RFU, NRIP1 / Fold change vs veh, NRIP1 / RFU, PTTG1IP / Fold change vs veh, PTTG1IP / RFU, CAPN2 / Fold change vs veh, CAPN2 / RFU, MED14 / Fold change vs veh, MED14 / RFU, SNORA58 / Fold change vs veh, SNORA58 / RFU, C1orf63 / Fold change vs veh, C1orf63 / RFU, LRRFIP1 / Fold change vs veh, LRRFIP1 / RFU, NDUFAF7 / Fold change vs veh, NDUFAF7 / RFU, SLC12A2 / Fold change vs veh, SLC12A2 / RFU, IBTK / Fold change vs veh, IBTK / RFU, ESF1 / Fold change vs veh, ESF1 / Fold change vs veh, TMEM50B / RFU, TAOK1 / Fold change vs veh, TAOK1 / RFU, ACBD3 / Fold change vs veh, ACBD3 / RFU, TMA16 / Fold change vs veh, TMA16 / RFU, RWDD3 / Fold change vs veh, RWDD3 / RFU, BCAT1 / Fold change vs veh, BCAT1 / RFU, EDEM3 / Fold change vs veh, EDEM3 / RFU, TMEM33 / Fold change vs veh, TMEM33 / RFU, WDR75 / Fold change vs veh, WDR75 / RFU, AHCTF1 / Fold change vs veh, AHCTF1 / RFU, TFRC / Fold change vs veh, TFRC / RFU, ZDHHC17 / Fold change vs veh, ZDHHC17 / RFU, NOM1 / Fold change vs veh, NOM1 / RFU, ARL8B / Fold change vs veh, ARL8B / RFU, ZBTB11 / Fold change vs veh, ZBTB11 / RFU, TAMM41 / Fold change vs veh, TAMM41 / RFU, KIAA1704 /// LOC100996395 / Fold change vs veh, KIAA1704 /// LOC100996395 / RFU, ING1 / Fold change vs veh, ING1 / RFU, TRMT61B / Fold change vs veh, TRMT61B / RFU, FUBP3 / Fold change vs veh, FUBP3 / RFU, TP53 / Fold change vs veh, TP53 / RFU, TNKS2 / Fold change vs veh, TNKS2 / RFU, ZFP14 / Fold change vs veh, ZFP14 / RFU, ACTR2 / Fold change vs veh, ACTR2 / RFU, PPP3R1 / Fold change vs veh, PPP3R1 / RFU, PIK3R1 / Fold change vs veh, PIK3R1 / RFU, HNRNPA1 / Fold change vs veh, HNRNPA1 / RFU, RNF170 / Fold change vs veh, RNF170 / RFU, ZNF28 / Fold change vs veh, ZNF28 / RFU, RNGTT / Fold change vs veh, RNGTT / RFU, OGT / Fold change vs veh, OGT / RFU, BRD1 / Fold change vs veh, BRD1 / RFU, MARS / Fold change vs veh, MARS / RFU, ZNF655 / Fold change vs veh, ZNF655 / RFU, FAHD1 / Fold change vs veh, FAHD1 / RFU, BDP1 / Fold change vs veh, BDP1 / RFU, LRRCC1 / Fold change vs veh, LRRCC1 / RFU, ARID1A / Fold change vs veh, ARID1A / RFU, ZNF146 / Fold change vs veh, ZNF146 / RFU, ZNF330 / Fold change vs veh, ZNF330 / RFU, GPN3 / Fold change vs veh, GPN3 / RFU, C9orf123 / Fold change vs veh, C9orf123 / RFU, N4BP2L2 / Fold change vs veh, N4BP2L2 / RFU, ARFIP1 / Fold change vs veh, ARFIP1 / RFU, FAM179B / Fold change vs veh, FAM179B / RFU, BCL10 / Fold change vs veh, BCL10 / RFU, UHRF1BP1L / Fold change vs veh, UHRF1BP1L / RFU, BET1 / Fold change vs veh, BET1 / RFU, CNOT2 / Fold change vs veh, CNOT2 / RFU, ZNF268 / Fold change vs veh, ZNF268 / Fold change vs veh, ZNF507 / RFU, DGCR2 / Fold change vs veh, DGCR2 / RFU, WDSUB1 / Fold change vs veh, WDSUB1 / Fold change vs veh, HSP90B1 /// MIR3652 / RFU, ADSS / Fold change vs veh, ADSS / RFU, GK / Fold change vs veh, GK / RFU, ZNF148 / Fold change vs veh, ZNF148 / RFU, TAF9 / Fold change vs veh, TAF9 / RFU, SLC1A5 / Fold change vs veh, SLC1A5 / RFU, SLMO2 / Fold change vs veh, SLMO2 / RFU, ABCC4 / Fold change vs veh, ABCC4 / RFU, LOC101060439 /// RAP1B / Fold change vs veh, LOC101060439 /// RAP1B / RFU, RFX7 / Fold change vs veh, RFX7 / RFU, GTPBP10 / Fold change vs veh, GTPBP10 / RFU, CNEP1R1 / Fold change vs veh, CNEP1R1 / RFU, BIVM-ERCC5 /// ERCC5 / Fold change vs veh, BIVM-ERCC5 /// ERCC5 / RFU, ILF3 / Fold change vs veh, ILF3 / RFU 11762660_at / Fold change /veh 11762660_at / RFU VCAN (11757783_s_at) / Fold change /veh VCAN (11757783_s_at) / RFU DDX43 (11728927_at) / Fold change /veh DDX43 (11728927_at) / RFU KRT8 (11758188_x_at) / Fold change /veh KRT8 (11758188_x_at) / RFU NKD1 (11759106_at) / Fold change /veh NKD1 (11759106_at) / RFU SRD5A1 (11742802_a_at) / Fold change /veh SRD5A1 (11742802_a_at) / RFU TPSAB1 /// TPSB2 (11721975_s_at) / Fold change /veh TPSAB1 /// TPSB2 (11721975_s_at) / RFU GSTM3 (11746129_a_at) / Fold change /veh GSTM3 (11746129_a_at) / RFU IL23R (11737362_x_at) / Fold change /veh IL23R (11737362_x_at) / RFU TMEM51 (11727254_a_at) / Fold change /veh TMEM51 (11727254_a_at) / RFU PIWIL2 (11732686_x_at) / Fold change /veh PIWIL2 (11732686_x_at) / RFU ORM1 (11744905_x_at) / Fold change /veh ORM1 (11744905_x_at) / RFU CCDC152 (11743942_at) / Fold change /veh CCDC152 (11743942_at) / RFU ECM1 (11717891_a_at) / Fold change /veh ECM1 (11717891_a_at) / RFU IL23R (11748794_a_at) / Fold change /veh IL23R (11748794_a_at) / RFU TNFAIP8L3 (11732012_x_at) / Fold change /veh TNFAIP8L3 (11732012_x_at) / RFU MBOAT4 (11741988_at) / Fold change /veh MBOAT4 (11741988_at) / RFU 11764193_at / Fold change /veh 11764193_at / RFU TMEM53 (11763286_at) / Fold change /veh TMEM53 (11763286_at) / RFU MAGEB2 (11727129_at) / Fold change /veh MAGEB2 (11727129_at) / RFU TMEM200A (11744735_a_at) / Fold change /veh TMEM200A (11744735_a_at) / RFU CCDC152 (11751479_a_at) / Fold change /veh CCDC152 (11751479_a_at) / RFU FAM211A (11726209_a_at) / Fold change /veh FAM211A (11726209_a_at) / RFU RGS16 (11746705_a_at) / Fold change /veh RGS16 (11746705_a_at) / RFU VCAN (11755009_s_at) / Fold change /veh VCAN (11755009_s_at) / RFU RHOB (11743442_s_at) / Fold change /veh RHOB (11743442_s_at) / RFU RGS16 (11720943_a_at) / Fold change /veh RGS16 (11720943_a_at) / RFU RGS16 (11720944_at) / Fold change /veh RGS16 (11720944_at) / RFU, VPS4B / Fold change vs veh, VPS4B / RFU, CREB1 / Fold change vs veh, CREB1 / RFU, DNAJC13 / Fold change vs veh, DNAJC13 / RFU, GNAQ / Fold change vs veh, GNAQ / RFU, CDK5R1 / Fold change vs veh, CDK5R1 / RFU, ZRANB3 / Fold change vs veh, ZRANB3 / RFU, CUL4A / Fold change vs veh, CUL4A / RFU, CCNY / Fold change vs veh, CCNY / RFU, UFL1 / Fold change vs veh, UFL1 / RFU, COG3 / Fold change vs veh, COG3 / RFU, DIAPH2 / Fold change vs veh, DIAPH2 / RFU, SKA2 / Fold change vs veh, SKA2 / RFU, AFF3 / Fold change vs veh, AFF3 / RFU, LMF1 / Fold change vs veh, LMF1 / RFU, IPO11 / Fold change vs veh, IPO11 / RFU, DFFB / Fold change vs veh, DFFB / RFU, FOXP1 / Fold change vs veh, FOXP1 / RFU, CARD8 / Fold change vs veh, CARD8 / RFU, STRN3 / Fold change vs veh, STRN3 / RFU, ADK / Fold change vs veh, ADK / RFU, RASSF2 / Fold change vs veh, RASSF2 / RFU, WIPF1 / Fold change vs veh, WIPF1 / RFU, LARP1B / Fold change vs veh, LARP1B / RFU, RASA1 / Fold change vs veh, RASA1 / RFU, RB1 / Fold change vs veh, RB1 / RFU, PPFIA1 / Fold change vs veh, PPFIA1 / RFU, MAT2A / Fold change vs veh, MAT2A / RFU, CCT5 / Fold change vs veh, CCT5 / RFU, WDR92 / Fold change vs veh, WDR92 / RFU, CUX1 / Fold change vs veh, CUX1 / RFU, TTC7A / Fold change vs veh, TTC7A / RFU, TMEM135 / Fold change vs veh, TMEM135 / RFU, DEPTOR / Fold change vs veh, DEPTOR / RFU, CPM / Fold change vs veh, CPM / RFU, DNAJB6 / Fold change vs veh, DNAJB6 / RFU, CACNA2D3 / Fold change vs veh, CACNA2D3 / RFU, DTX4 / Fold change vs veh, DTX4 / RFU, TFCP2 / Fold change vs veh, TFCP2 / RFU, GMCL1 /// GMCL1P1 / Fold change vs veh, GMCL1 /// GMCL1P1 / RFU, AEBP2 / Fold change vs veh, AEBP2 / RFU, SNHG1 /// SNORD22 /// SNORD25 /// SNORD26 /// SNORD27 /// SNORD28 /// SNORD29 /// SNORD31 / Fold change vs veh, SNHG1 /// SNORD22 /// SNORD25 /// SNORD26 /// SNORD27 /// SNORD28 /// SNORD29 /// SNORD31 / Fold change (Aza/veh), C12orf56 (ProbeSet 11735607_a_at) / Fold change (ACY-1035/veh), C12orf56 (ProbeSet 11735607_a_at) / Fold change (Aza/veh), FGFR1OP (ProbeSet 11751329_s_at) / Fold change (ACY-1035/veh), FGFR1OP (ProbeSet 11751329_s_at) / Fold change (Aza/veh), VPS36 (ProbeSet 11739960_a_at) / Fold change (ACY-1035/veh), VPS36 (ProbeSet 11739960_a_at) / RFU SYPL1 (11715823_x_at) / Fold change /veh SYPL1 (11715823_x_at) / RFU IGFBP7 (11715501_s_at) / Fold change /veh IGFBP7 (11715501_s_at) / RFU REEP3 (11722064_at) / Fold change /veh REEP3 (11722064_at) / RFU IGLL1 (11728026_x_at) / Fold change /veh IGLL1 (11728026_x_at): dose or concentration left out as unconfirmed
Conditions: MV-4-11 cells, 48 hours

## Nc1ncn([C@@H]2O[C@H](CO)[C@@H](O)[C@H]2O)c(=O)n1 [azacitidine]
  RFU CASKIN2 (11723855_a_at): 31.47 RFU

From PMC5218480 (PLoS ONE, 2017)
